Experimental data from patent US20070213301A1 (ACHILLION PHARMACEUTICALS, INC., priority 2006, published 2007).

system: HCV replicon; assay: HCV replicon replication assay (NPTII ELISA); type: cell-based, Hepatitis C virus (Huh-7 cells); settings: Hepatitis C virus, Huh-7, 72 h, inhibition of HCV replicon replication in Huh-7 HCV replicon-containing cells, three days incubation, NPT level by ELISA
How it was run: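 Huh-7 cells carrying a Bartenschlager NPTII (neo) HCV replicon, treated 3 days at 37 °C with compound, generally 6 concentrations from 10 to 0.03 micromolar, in equal DMSO across wells. NPTII level, proportional to replication, read by capture ELISA on methanol:acetone-fixed cells; interferon alpha positive control; toxicity scored visually or by MTS.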

Row | SMILES | EC50
1 | CCCCCN(C)c1ccc(N(C(N)=O)c2nc(-c3ccc(F)c(F)c3)cs2)cc1C(F)(F)F [Compound 107] | < 1000 nM

same assay, conditions: Hepatitis C virus, Huh-7, 72 h, inhibition of HCV replicon replication in Huh-7 HCV replicon-containing cells, three days incubation, NPT level by ELISA; read-out: EC50

Row | SMILES | EC50
2 | CCCCCCCCOc1ccc(N(C(N)=O)c2nc(-c3cccnc3)cs2)cc1C(F)(F)F [Compound 130, 1-(4-(octyloxy)-3-(trifluoromethyl)phenyl)-1-(4-(pyridin-3-yl)thiazol-2-yl)urea] | < 1000 nM
3 | CCCCCCCCOc1ccc(N(C(=O)c2cc(C)on2)c2nc(-c3ccc(Cl)s3)cs2)cc1 [Compound 89, N-(4-(5-chlorothiophen-2-yl)thiazol-2-yl)-5-methyl-N-(4-(octyloxy)phenyl)isoxazole-3-carboxamide] | < 1000 nM
4 | CCCCCOc1ccc(N(C(=O)C(C)C)c2nc(-c3ccc(CN(C)C)nc3)cs2)cc1C(F)(F)F [Compound 19, N-(4-(6-((dimethylamino)methyl)pyridin-3-yl)thiazol-2-yl)-N-(4-(pentyloxy)-3-(trifluoromethyl)phenyl)isobutyramide] | 1000 to 10000 nM
5 | CCCCCOc1ccc(N(C(=O)C2CC2)c2nc(CN(C)C)cs2)cc1C(F)(F)F [Compound 22, N-(4-((dimethylamino)methyl)thiazol-2-yl)-N-(4-(pentyloxy)-3-(trifluoromethyl)phenyl)cyclopropane-carboxamide] | 1000 to 10000 nM
6 | CCCCCCCCOc1ccc(N(C(=O)CCC(=O)O)c2nc(-c3cccnc3)c(F)s2)cc1C(F)(F)F [Compound 163, 4-((5-fluoro-4-(pyridin-3-yl)thiazol-2-yl)(4-(octyloxy)-3-(trifluoromethyl)phenyl)amino)-4-oxobutanoic acid] | < 1000 nM
7 | CCCCCOc1ccc(N(C(=O)C(OC(C)=O)c2ccccc2)c2nc(-c3cccnc3)cs2)cc1C(F)(F)F (stereo not drawn) [Compound 65, 2-oxo-2-((4-(pentyloxy)-3-(trifluoromethyl)phenyl)(4-(pyridin-3-yl)thiazol-2-yl)amino)-1-phenylethyl acetate] | < 1000 nM
8 | CCCCCOc1ccc(N(C(N)=O)c2nc(-c3ccc(F)cc3)cs2)cc1C(F)(F)F [Compound 69, 1-(4-(4-fluorophenyl)thiazol-2-yl)-1-(4-(pentyloxy)-3-(trifluoromethyl)phenyl)urea] | < 1000 nM
9 | C/C=N/N(c1ccc(OCCCCCCCC)c(C(F)(F)F)c1)c1nc(-c2cccnc2)cs1 [Compound 189, (E)-2-(2-ethylidene-1-(4-(octyloxy)-3-(trifluoromethyl)phenyl)hydrazinyl)-4-(pyridin-3-yl)thiazolo] | < 1000 nM
10 | CCCCCOc1ccc(N(CCN(C)C)c2nc(-c3cccnc3)cs2)cc1C(F)(F)F [Compound 11, N1,N1-dimethyl-N2-(4-(pentyloxy)-3-(trifluoromethyl)phenyl)-N2-(4-(pyridin-3-yl)thiazol-2-yl)ethane-1,2-diamine] | 1000 to 10000 nM
11 | CCCCCCCCOc1ccc(N(C(=O)CNC(=O)OC(C)(C)C)c2nc(-c3cccnc3)c(F)s2)cc1C(F)(F)F [Compound 164, tert-butyl 2-((5-fluoro-4-(pyridin-3-yl)thiazol-2-yl)(4-(octyloxy)-3-(trifluoromethyl)phenyl)amino)-2-oxoethylcarbamate] | < 1000 nM
12 | CCCCCCCCOc1ccc(N(C(=O)NCC)c2nc(-c3cccnc3)cs2)cc1 [Compound 73, 3-ethyl-1-(4-(octyloxy)phenyl)-1-(4-(pyridin-3-yl)thiazol-2-yl)urea] | > 10000 nM
13 | CC/C=N/N(c1ccc(OCCCCCCCC)cc1)c1nc(-c2cccnc2)cs1 [Compound 188, (E)-2-(1-(4-(octyloxy)phenyl)-2-propylidenehydrazinyl)-4-(pyridin-3-yl)thiazolo] | < 1000 nM
14 | CCCCCOc1ccc(N(C(=O)Nc2ccccc2)c2nc(-c3cccnc3)cs2)cc1C(F)(F)F [Compound 81, 1-(4-(pentyloxy)-3-(trifluoromethyl)phenyl)-3-phenyl-1-(4-(pyridin-3-yl)thiazol-2-yl)urea] | < 1000 nM
15 | CCCCCCCCOc1ccc(N(C(=O)COC(C)=O)c2nc(-c3ccc(F)cc3)cs2)cc1 [Compound 60, 2-((4-(4-fluorophenyl)thiazol-2-yl)(4-(octyloxy)phenyl)amino)-2-oxoethyl acetate] | < 1000 nM
16 | CCCCCOc1ccc(N(C)c2nc(C(=O)Nc3cccnc3)cs2)cc1C(F)(F)F [Compound 6, 2-(methyl(4-(pentyloxy)-3-(trifluoromethyl)phenyl)amino)-N-(pyridin-3-yl)thiazole-4-carboxamide] | 1000 to 10000 nM
17 | CCCCCOc1ccc(N(C(C)=O)c2nc(CNC(C)=O)cs2)cc1C(F)(F)F [Compound 29, N-(4-(acetamidomethyl)thiazol-2-yl)-N-(4-(pentyloxy)-3-(trifluoromethyl)phenyl)acetamide] | 1000 to 10000 nM
18 | CCCCCCCCOc1ccc(N(C(=O)C(N)=O)c2nc(-c3cccnc3)cs2)cc1C(F)(F)F [Compound 131, N1-(4-(octyloxy)-3-(trifluoromethyl)phenyl)-N1-(4-(pyridin-3-yl)thiazol-2-yl)oxalamide] | < 1000 nM
19 | CCCCCCCCOc1ccc(N(C(=O)COC(C)=O)c2nc(-c3ccc(F)c(F)c3)cs2)cc1 [Compound 57, 2-((4-(3,4-difluorophenyl)thiazol-2-yl)(4-(octyloxy)phenyl)amino)-2-oxoethyl acetate] | < 1000 nM

Row | SMILES | EC50
20 | CCCCCOc1ccc(N(C(=O)OC)c2nc(-c3ccc(F)cc3)cs2)cc1F [Compound 46, methyl 3-fluoro-4-(pentyloxy)phenyl(4-(4-fluorophenyl)thiazol-2-yl)carbamate] | 1000 to 10000 nM
21 | CCCCCN(C)c1ccc(N(C(N)=O)c2nc(-c3ccc4c(c3)NC(=O)CO4)cs2)cc1C(F)(F)F [Compound 105, 1-(4-(methyl(pentyl)amino)-3-(trifluoromethyl)phenyl)-1-(4-(3-oxo-3,4-dihydro-2H-benzo[b][1,4]oxazin-6-yl)thiazol-2-yl)urea] | 1000 to 10000 nM
22 | CCCCCOc1ccc(N(C(=O)C(=O)OC)c2nc(-c3ccc(F)cc3)cs2)cc1F [Compound 45, methyl 2-((3-fluoro-4-(pentyloxy)phenyl)(4-(4-fluorophenyl)thiazol-2-yl)amino)-2-oxoacetate] | < 1000 nM
23 | CCCCCN(C)c1ccc(N(C(N)=O)c2nc(-c3ccccn3)cs2)cc1C(F)(F)F [Compound 106, 1-(4-(methyl(pentyl)amino)-3-(trifluoromethyl)phenyl)-1-(4-(pyridin-2-yl)thiazol-2-yl)urea] | < 1000 nM
24 | CCCCCOc1ccc(N(C(N)=O)c2nc(-c3cccnc3)c(F)s2)cc1C(F)(F)F [Compound 156, 1-(5-fluoro-4-(pyridin-3-yl)thiazol-2-yl)-1-(4-(pentyloxy)-3-(trifluoromethyl)phenyl)urea] | < 1000 nM
25 | CCCCCCCCc1ccc(N(C(=O)OCC[N+](C)(C)C)c2nc(-c3cccnc3)c(F)s2)cc1C(F)(F)F [Compound 181] | < 1000 nM
26 | CCCCCOc1ccc(N(C(C)=O)c2nc(CN(C)C)cs2)cc1C(F)(F)F [Compound 20, N-(4-((dimethylamino)methyl)thiazol-2-yl)-N-(4-(pentyloxy)-3-(trifluoromethyl)phenyl)acetamide] | 1000 to 10000 nM
27 | CCCCCOc1ccc(N(C)c2nc(C(=O)O)cs2)cc1C(F)(F)F [Compound 3, 2-(methyl(4-(pentyloxy)-3-(trifluoromethyl)phenyl)amino)thiazole-4-carboxylic acid] | > 10000 nM
28 | CCCCCCCCOc1ccc(N(C(=O)CO)c2nc(-c3cccnc3)c(F)s2)cc1C(F)(F)F [Compound 169, N-(5-fluoro-4-(pyridin-3-yl)thiazol-2-yl)-2-hydroxy-N-(4-(octyloxy)-3-(trifluoromethyl)phenyl)acetamide] | < 1000 nM
29 | CCCCCCCCc1ccc(N(C(=O)[C@@H](N)C(C)C)c2nc(-c3ccc(O)nc3)cs2)cc1C(F)(F)F [Compound 157, (S)-2-amino-N-(4-(6-hydroxypyridin-3-yl)thiazol-2-yl)-3-methyl-N-(4-octyl-3-(trifluoromethyl)phenyl)butanamide] | 1000 to 10000 nM
30 | CCCCCCCCOc1ccc(N(C(=O)CN(C)C)c2nc(-c3cccnc3)cs2)cc1C(F)(F)F [Compound 160, 2-(dimethylamino)-N-(4-(octyloxy)-3-(trifluoromethyl)phenyl)-N-(4-(pyridin-3-yl)thiazol-2-yl)acetamide] | < 1000 nM
31 | CCCCCCCCOc1ccc(N(C(C)=O)c2nc(-c3cccnc3)cs2)cc1 [Compound 68, N-(4-(octyloxy)phenyl)-N-(4-(pyridin-3-yl)thiazol-2-yl)acetamide] | < 1000 nM
32 | CCCCCOc1ccc(N(C(=O)C2CC2)c2nc(-c3cccnc3)cs2)cc1C(F)(F)F [Compound 15, N-(4-(pentyloxy)-3-(trifluoromethyl)phenyl)-N-(4-(pyridin-3-yl)thiazol-2-yl)cyclopropanecarboxamide] | < 1000 nM
33 | CCCCCOc1ccc(N(C(=O)C(=O)OC)c2nc(CN(C)C)cs2)cc1C(F)(F)F [Compound 23, methyl 2-((4-((dimethylamino)methyl)thiazol-2-yl)(4-(pentyloxy)-3-(trifluoromethyl)phenyl)amino)-2-oxoacetate] | 1000 to 10000 nM
34 | CCCCCOc1ccc(N(C(=O)c2cccnc2)c2nc(-c3nc4ccccc4s3)cs2)cc1C(F)(F)F [Compound 102, N-(4-(benzo[d]thiazol-2-yl)thiazol-2-yl)-N-(4-(pentyloxy)-3-(trifluoromethyl)phenyl)nicotinamide] | < 1000 nM
35 | CCCCCCCCOc1ccc(N(C(=O)OC)c2nc(-c3ccc(F)c(F)c3)cs2)cc1 [Compound 59, methyl 4-(3,4-difluorophenyl)thiazol-2-yl(4-(octyloxy)phenyl)carbamate] | 1000 to 10000 nM
36 | CCCCCOc1ccc2c(c1)[nH]c(=O)c(=O)n2-c1nc(-c2cccnc2)cs1 [Compound 128, 6-(pentyloxy)-1-(4-(pyridin-3-yl)thiazol-2-yl)quinoxaline-2,3(1H,4H)-dione] | > 10000 nM
